Test results taken from US12605439B2 (priority 2017, dated 2026).

How the values were obtained:
LK^b cells = assay type: cell-based
SIIN specific T cell = assay type: cell-based

In the case of “QLE SIINFEKL TEW (QLESIINFEKLTEW; OVA peptide used in the Examples) [Ext SIIN, extended model ovalbumin peptide with three flanking residues at both termini]”, the “presentation of CD8 epitope compared to free peptide loading” value (LK^b cells) was “lower” and the “activation of T cells compared to free peptide” value (SIIN specific T cell) was “equivalent”.
